Reference: the supplement of paper PMC10307832

How the values were obtained:
Test in all cases: relative viability (nuclei count vs DMSO), 5 days (fraction); higher = more cells survive
LC-2-ad = system: LC-2-ad
How it was run: (§1)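 Five library-drug doses in √10 steps were combined with a fixed anchor-drug dose, or a single drug was given alone, by pin tool to lung cancer cell lines in 1536-well plates the day after seeding. Nuclei were stained and counted after 5 days. Relative viability is the nuclei count in treated wells over that in vehicle wells, taken as the median of duplicate plates.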

NCI-H596 = system: NCI-H596
How it was run: as §1

NCI-H1793 = system: NCI-H1793
How it was run: as §1

NCI-H2228 = system: NCI-H2228
How it was run: as §1

SW 1573 = system: SW 1573
How it was run: as §1

LK-2 = system: LK-2
How it was run: as §1

NCI-H1650 = system: NCI-H1650
How it was run: as §1

201T = system: 201T
How it was run: as §1

NCI-H23 = system: NCI-H23
How it was run: as §1

PC-14 = system: PC-14
How it was run: as §1

LU99A = system: LU99A
How it was run: as §1

NCI-H460 = system: NCI-H460
How it was run: as §1

NCI-H2347 = system: NCI-H2347
How it was run: as §1

H3255 = system: H3255
How it was run: as §1

A-427 = system: A-427
How it was run: as §1

LCLC-97TM1 = system: LCLC-97TM1
How it was run: as §1

HCC-44 = system: HCC-44
How it was run: as §1

NCI-H1563 = system: NCI-H1563
How it was run: as §1

NCI-H727 = system: NCI-H727
How it was run: as §1

COR-L23 = system: COR-L23
How it was run: as §1

CC(=O)O[C@@]12CO[C@@H]1C[C@H](O)[C@@]1(C)C(=O)[C@H](O)C3=C(C)[C@@H](OC(=O)[C@H](O)[C@@H](NC(=O)OC(C)(C)C)c4ccccc4)C[C@@](O)([C@@H](OC(=O)c4ccccc4)[C@H]21)C3(C)C [Docetaxel] + CS(=O)(=O)CCNCc1ccc(-c2ccc3ncnc(Nc4ccc(OCc5cccc(F)c5)c(Cl)c4)c3c2)o1 [Lapatinib] (partner 2 µM)
relative viability (LC-2-ad; first compound 0.0002 µM): 0.538
relative viability (LC-2-ad; first compound 0.000632 µM): 0.296
relative viability (LC-2-ad; first compound 0.002 µM): 0.14
relative viability (LC-2-ad; first compound 0.006325 µM): 0.112
relative viability (LC-2-ad; first compound 0.02 µM): 0.0888
relative viability (NCI-H596; first compound 0.0002 µM): 0.995
relative viability (NCI-H596; first compound 0.000632 µM): 0.957
relative viability (NCI-H596; first compound 0.002 µM): 0.844
relative viability (NCI-H596; first compound 0.006325 µM): 0.372
relative viability (NCI-H596; first compound 0.02 µM): 0.35
relative viability (NCI-H1793; first compound 0.0002 µM): 0.569
relative viability (NCI-H1793; first compound 0.000632 µM): 0.618
relative viability (NCI-H1793; first compound 0.006325 µM): 0.315
relative viability (NCI-H1793; first compound 0.02 µM): 0.216
relative viability (NCI-H2228; first compound 0.0002 µM): 0.641
relative viability (NCI-H2228; first compound 0.000632 µM): 0.184
relative viability (NCI-H2228; first compound 0.002 µM): 0.255
relative viability (NCI-H2228; first compound 0.006325 µM): 0.267
relative viability (NCI-H2228; first compound 0.02 µM): 0.16
relative viability (SW 1573; first compound 0.0002 µM): 1.06
relative viability (SW 1573; first compound 0.000632 µM): 0.946
relative viability (SW 1573; first compound 0.002 µM): 0.321
relative viability (SW 1573; first compound 0.006325 µM): 0.256
relative viability (SW 1573; first compound 0.02 µM): 0.192
relative viability (LK-2; first compound 0.0002 µM): 0.843
relative viability (LK-2; first compound 0.000632 µM): 0.662
relative viability (LK-2; first compound 0.002 µM): 0.244
relative viability (LK-2; first compound 0.006325 µM): 0.248
relative viability (LK-2; first compound 0.02 µM): 0.148
relative viability (NCI-H1650; first compound 0.0002 µM): 0.721
relative viability (NCI-H1650; first compound 0.000632 µM): 0.322
relative viability (NCI-H1650; first compound 0.006325 µM): 0.153
relative viability (NCI-H1650; first compound 0.02 µM): 0.152
relative viability (201T; first compound 0.0002 µM): 0.917
relative viability (201T; first compound 0.000632 µM): 0.937
relative viability (201T; first compound 0.002 µM): 0.822
relative viability (201T; first compound 0.006325 µM): 0.622
relative viability (201T; first compound 0.02 µM): 0.373
relative viability (NCI-H23; first compound 0.0002 µM): 0.963
relative viability (NCI-H23; first compound 0.000632 µM): 0.725
relative viability (NCI-H23; first compound 0.002 µM): 0.356
relative viability (NCI-H23; first compound 0.006325 µM): 0.157
relative viability (NCI-H23; first compound 0.02 µM): 0.123
relative viability (PC-14; first compound 0.0002 µM): 0.272
relative viability (PC-14; first compound 0.000632 µM): 0.417
relative viability (PC-14; first compound 0.002 µM): 0.235
relative viability (PC-14; first compound 0.006325 µM): 0.0958
relative viability (PC-14; first compound 0.02 µM): 0.0629
relative viability (LU99A; first compound 0.0002 µM): 0.799
relative viability (LU99A; first compound 0.000632 µM): 0.424
relative viability (LU99A; first compound 0.002 µM): 0.423
relative viability (LU99A; first compound 0.006325 µM): 0.255
relative viability (LU99A; first compound 0.02 µM): 0.188
relative viability (NCI-H460; first compound 0.0002 µM): 0.665
relative viability (NCI-H460; first compound 0.000632 µM): 0.163
relative viability (NCI-H460; first compound 0.002 µM): 0.0209
relative viability (NCI-H460; first compound 0.006325 µM): 0.0147
relative viability (NCI-H460; first compound 0.02 µM): 0.0097
relative viability (NCI-H2347; first compound 0.0002 µM): 1.01
relative viability (NCI-H2347; first compound 0.000632 µM): 1.05
relative viability (NCI-H2347; first compound 0.002 µM): 0.839
relative viability (NCI-H2347; first compound 0.006325 µM): 0.512
relative viability (NCI-H2347; first compound 0.02 µM): 0.479
relative viability (H3255; first compound 0.0002 µM): 0.227
relative viability (H3255; first compound 0.002 µM): 0.223
relative viability (H3255; first compound 0.006325 µM): 0.19
relative viability (H3255; first compound 0.02 µM): 0.175
relative viability (A-427; first compound 0.0002 µM): 0.947
relative viability (A-427; first compound 0.000632 µM): 1.02
relative viability (A-427; first compound 0.002 µM): 0.961
relative viability (A-427; first compound 0.006325 µM): 0.211
relative viability (A-427; first compound 0.02 µM): 0.162
relative viability (LCLC-97TM1; first compound 0.000632 µM): 0.865
relative viability (LCLC-97TM1; first compound 0.002 µM): 0.155
relative viability (LCLC-97TM1; first compound 0.006325 µM): 0.175
relative viability (LCLC-97TM1; first compound 0.02 µM): 0.083
relative viability (HCC-44; first compound 0.0002 µM): 0.936
relative viability (HCC-44; first compound 0.000632 µM): 0.961
relative viability (HCC-44; first compound 0.002 µM): 0.621
relative viability (HCC-44; first compound 0.006325 µM): 0.22
relative viability (HCC-44; first compound 0.02 µM): 0.115
relative viability (NCI-H1563; first compound 0.0002 µM): 0.969
relative viability (NCI-H1563; first compound 0.000632 µM): 1.01
relative viability (NCI-H1563; first compound 0.002 µM): 0.971
relative viability (NCI-H1563; first compound 0.006325 µM): 0.747
relative viability (NCI-H1563; first compound 0.02 µM): 0.581
relative viability (NCI-H727; first compound 0.0002 µM): 0.854
relative viability (NCI-H727; first compound 0.000632 µM): 0.787
relative viability (NCI-H727; first compound 0.002 µM): 0.371
relative viability (NCI-H727; first compound 0.006325 µM): 0.26
relative viability (COR-L23; first compound 0.0002 µM): 0.993
relative viability (COR-L23; first compound 0.000632 µM): 0.843
relative viability (COR-L23; first compound 0.002 µM): 0.625
relative viability (COR-L23; first compound 0.006325 µM): 0.14
relative viability (COR-L23; first compound 0.02 µM): 0.107
